Test results as given in patent US5773236A, “Assay for glutathiane transferase using polyhaloaryl-substituted reporter molecules” (Molecule Probes, Inc., priority 1997, dated 1998).
Structures can show the parent of a compound that is named as a salt. One block for each compound: values may come before it.

Key:
CRE BAG 2 cells [1] = assay: Marker gene expression by flow cytometry, CRE BAG 2 (Example 62); type: cell-based; conditions: 0.2 mM dye, 37° C., 30 minutes
Experimental: NIH-3T3 and CRE BAG2 cells are maintained as in Example 61. A 10 mM stock solution of (((3 -(2-pentafluorobenzoyl)amino)ethyl)amino)carbonyl)-umbelliferyl β-D-galactopyranoside (Compound 37; Example 37) is prepared in DMF. A 10 mM stock solution of 4-chloromethylcoumarin β-D-galactopyranoside (CMCG; Molecular Probes #D-2921) is prepared in a 1:1 mixture of DMSO and water. NIH-3T3 and CRE BAG2 cells are trypsinized, washed with phosphate buffered saline (PBS), pH 7.2 and resuspended in D-MEM with 10% BCS. To separate 1 mL cell suspensions are added the dye stock solutions to obtain final concentrations of 0.2 mM dye. Incubation is carried out at 37° C. for 30 minutes. Cells are centrifuged to form a pellet, the supernatant is discarded and the cells are washed twice with PBS, pH 7.2 and suspended in the same buffer. Cells are analyzed by flow cytometry using a Becton-Dickinson FACS Vantage flow cytometer. […] However, CRE BAG 2 cells stained with the Compound 37 show fluorescence that is greater than 25-fold that shown by autofluorescent control cells. For the CRE BAG 2 cells stained with CMCG, the fluorescence intensity is only 8-fold greater than that of the autofluorescent control cells.

[2] = system: glutathione transferase (GST); assay: Reactivity with glutathione catalyzed by glutathione transferase, TLC (Example 50); type: biochemical
Experimental: The suitability of Compound 1 (Example 1) and 5-(pentachlorobenzoylamino)fluorescein (Compound 48) as substrates for glutathione transferase (GST) in the presence of excess glutathione (GSH) is tested in vitro as follows: 5 mM GSH, 0.5 mM substrate (Compound 1 or Compound 48) and 20 micrograms GST (Sigma #G-6511, 70 units/mg) are combined in 0.1M phosphate buffer, pH 8.0, for 1 hour at 37° C. The reaction is terminated by spotting approximately 3 μL on silica gel TLC plates. The plate is developed using 1-butanol: methanol: water (3:1:1). […] Analysis of the reaction mixture by HPLC as in Example 52 confirms that the reaction product of Compound 1 with GSH is identical to the authentic Compound 1-GSH adduct as prepared in Example 45 (Compound 45).

NIH-3T3 cells = assay: Hydrolysis of esterase substrates and product retention in live cells, flow cytometry (Example 65); type: cell-based
Experimental: NIH-3T3 cells obtained from American Type Culture Collection Co., Rockville, Md. are used. They are grown in a humidified atmosphere of 5% CO2 in D-MEM supplemented with 10% bovine calf serum (BCS), 50 μg/mL gentamycin, 300 μg/mL L-glutamine and 10 mM HEPES, pH 7.4. Stock solutions of Compound 4 (Example 3), 10 mM in DMSO, and Compound 48 (Example 50), 5 mM in DMSO, are prepared. NIH-3T3 cells are trypsinized, washed with phosphate-buffered saline (PBS), pH 7.2 and resuspended in D-MEM with 10% BCS. To 1 mL of the cell suspension is added the dye stock solution to obtain a final dye concentration of 0.1 mM. Incubation is carried out at 37° C. for 30 minutes followed by incubation on ice for 30 minutes. Cells are centrifuged to form a pellet, the supernatant is discarded and the cells are washed twice with PBS, pH 7.2 and suspended in the same buffer. Cells are analyzed by flow cytometry using the Becton-Dickinson FACS Vantage flow cytometer. After analysis on the flow cytometer, cells are placed at 37° C. and analyzed by flow cytometry at frequent intervals over a period of 75 minutes. Cells stained with either of the dyes are at least 20-fold brighter than the autofluorescent control cells. Approximately 45% of Compound 4 and 35% of Compound 48 are still retained by the cells after 75 minutes of incubation at 37° C.

alkaline phosphatase = assay: Detection of alkaline phosphatase on a membrane blot (Example 63); type: biochemical; conditions: nitrocellulose
Experimental: The reagents used are: 1) 5-(pentafluorobenzoylamino)fluorescein diphosphate, tetraammonium salt (Compound 47; Example 47), 10 mM in 0.1M Tris, pH 8.5; 2) fluorescein diphosphate (FDP; Molecular Probes, #F-2999), 10 mM in 0.1M Tris, pH 8.5; 3) BLOCKER Blotto in PBS (Pierce Chemical Company); 4) 0.2M glycine, pH 8.8; 5) 0.05M MgCl2, 6) 0.1M Tris, pH 8.5; 7) wash buffer: 20 mM Tris, 137 mM NaCl, 0.5% TWEEN 20, pH 7.5. Stock solutions of alkaline phosphatase are diluted in 0.1M Tris, pH 8.5 to obtain solutions with the following concentrations: 1 μg/μL, 0.5 μg/μL, 0.25 μg/μL, 0.1 μg/μL, 50 ng/μL, 10 ng/μL, 1 ng/μL and 0 ng/μL. 1 μL of each diluted solution is spotted on a nitrocellulose membrane (1"×1"), pore size 0.45 μM, and allowed to dry overnight at room temperature. Blocking is done by treating both nitrocellulose blots with 2 mL of supernatant liquid from the BLOCKER Blotto solution for 30 minutes at room temperature. The following mixture is prepared: 1.5 mL of 0.2M glycine, pH 8.8+0.4 mL of 0.05M MgCl2 +100 μL of 0.1M Tris, pH 8.5+10 μL of 10 mM substrate stock solution (either PFB-FDP or FDP). Blotto supernatant on the blots is replaced with the above mixture and incubation is carried out for 35 minutes at 37° C. A Polaroid image of the blots is obtained by illuminating with reflected UV light at 254 nm. Exposure time is 5-10 sec with an aperture setting of F=4.5 and filter #15 is used to block unwanted light. Both Compound 47 and FDP can detect ~50 ng of the enzyme prior to washing the membranes. The blots are washed twice for 5 minutes each time with 2 mL of wash buffer and an image is obtained using the same settings and exposure times as described above.

CRE BAG 2 cells [3] = assay: Peptidase substrates in live cells, fluorescence microscopy (Example 59); type: cell-based; conditions: 1 μM, 0.5 μM or 0.1 μM, 37° C., 30 minutes
Experimental: CRE BAG 2 cells obtained from American Type Culture Collection Co., Rockville, Md. are used. They are grown in a humidified atmosphere of 5% CO2 in D-MEM supplemented with 10% calf serum, 50 μg/mL gentamycin, 300 μg/mL L-glutamine and 10 mM HEPES, pH 7.4. 1 mM stock solutions of Compound 13-Leu (Example 13) and Compound 13-Arg substrate are prepared in DMSO. CRE BAG 2 cells are trypsinized, washed with phosphate-buffered saline, pH 7.2 and resuspended in 1 mL of the same buffer. 1 μL, 0.5 μL or 0.1 μL of the stock reagents is added to 1 mL of the cell suspension to obtain a final concentration of 1 μM, 0.5 μM or 0.1 μM. Incubation is carried out at 37° C. for 30 minutes. Cells are centrifuged to form a pellet, the supernatant is discarded and the cells are washed with PBS, pH 7.2 and suspended in the same buffer. Cells are mounted on slides and observed by fluorescence microscopy using filters optimized for fluorescein.

[4] = system: Bovine pulmonary aorta endothelial cells (BPAEC); assay: Glutathione adduct formation and fate of substrate in cultured animal cells, HPLC (Example 66); type: cell-based
Experimental: The solutions are mixed overnight with three volumes of ethyl acetate followed by centrifugation at 15,000×g for 30 min to separate the organic and aqueous layers. HPLC analysis using a Rainin HPLC equipped with a C18, 5 μm, 100 Å, 4.6×250 mm MICROSORB-MV reverse phase column. […] Products are detected by reading the absorbance at 500 nm.
Bovine pulmonary aorta endothelial cells (BPAEC) are removed from flasks by trypsinization and washed into fresh complete growth medium to yield 10^6 cells/mL. […] Other aliquots of the cell suspension are loaded with the same substrates for 1 hour, rinsed into fresh complete medium, then incubated in the absence of substrate for an additional 3 hr at 37° C. to look for retention and efflux of fluorescent products. At the end of each incubation period the cells are removed by centrifugation and the supernate is retained. The cell pellets are resuspended in 1 mL of E-Pure water and subjected to three freeze-thaw cycles (-80° C. to 37° C.).

[5] = system: Bovine pulmonary aorta endothelial cells (BPAEC); assay: Retention of fluorescence in fixed cells (Example 66); type: cell-based; conditions: 3.7% formaldehyde 30 minutes, 0.2% Triton X-100 30 minutes
[6] = 15 min, 5 μM substrate, continuous
[7] = 1 hr, washed, then additional 3 hr at 37° C.
[8] = 4 hrs, 5 μM substrate, continuous

SMILES: O=c1cc(CCl)c2ccc(O[C@@H]3O[C@H](CO)[C@H](O)[C@H](O)[C@H]3O)cc2o1 [CMCG, 4-chloromethylcoumarin β-D-galactopyranoside, reference compound]
fluorescence relative to autofluorescent control cells (CRE BAG 2 cells [1]): 8 fold

adduct formation with glutathione in presence of GST ([2]; 5 mM GSH, 0.5 mM substrate, 20 micrograms GST, pH 8.0, 1 hour, 37° C.): does not form a new adduct
reaction in control without GST ([2]; GST omitted): very low or no reaction
SMILES: O=C1OC2(c3ccc(O)cc3Oc3cc(O)ccc32)c2ccc(NC(=O)c3c(Cl)c(Cl)c(Cl)c(Cl)c3Cl)cc21 [Compound 48, 5-(pentachlorobenzoylamino)fluorescein]
brightness versus autofluorescent control cells (NIH-3T3 cells; 0.1 mM dye, 37° C., 30 minutes then on ice 30 minutes): at least 20 fold
dye retained by the cells (NIH-3T3 cells; after 75 minutes of incubation at 37° C.): ~35%

SMILES: O=C1OC2(c3ccc(OP(=O)(O)O)cc3Oc3cc(OP(=O)(O)O)ccc32)c2ccc(NC(=O)c3c(F)c(F)c(F)c(F)c3F)cc21 [Compound 47, 5-(pentafluorobenzoylamino)fluorescein diphosphate, tetraammonium salt]
amount of enzyme detected, before washing (alkaline phosphatase; 35 minutes, 37° C., prior to washing the membranes): ~ 50 ng
amount of enzyme detected, after washing (alkaline phosphatase; washed twice for 5 minutes, per spot): ~ 50 ng

SMILES: CC(C)C[C@H](N)C(=O)Nc1ccc2c(c1)Oc1cc(NC(=O)c3c(F)c(F)c(F)c(F)c3F)ccc1C21OC(=O)c2ccccc21 (stereo partly drawn) [Compound 13-Leu, Rhodamine 110, pentafluorobenzoyl amide, L-leucine amide, hydrochloride]
staining of cells, fluorescence microscopy (CRE BAG 2 cells [3]): punctate green fluorescence associated with organelles

SMILES: CC(=O)Oc1ccc2c(c1)Oc1cc(OC(C)=O)ccc1C21OC(=O)c2cc(NC(=O)c3ccccc3)ccc21 [Compound 5, 5-(benzoylamino)fluorescein diacetate]
GSH adduct formation in cells ([4]; 5 μM substrate, 37° C., HPLC): does not
EXTRACELLULAR Free dye [4, 6]: 4829 relative fluorescence units
EXTRACELLULAR Free dye, fraction of total fluorescence [4, 6]: 91.5%
INTRACELLULAR Free dye [4, 6]: 450 relative fluorescence units
INTRACELLULAR Free dye, fraction of total fluorescence [4, 6]: 8.5%
EXTRACELLULAR Free dye [4, 7]: 469 relative fluorescence units
EXTRACELLULAR Free dye, fraction of total fluorescence [4, 7]: 100%
EXTRACELLULAR Free dye [4, 8]: 8627 relative fluorescence units
EXTRACELLULAR Free dye, fraction of total fluorescence [4, 8]: 99.1%
INTRACELLULAR Free dye [4, 8]: 78 relative fluorescence units
INTRACELLULAR Free dye, fraction of total fluorescence [4, 8]: 0.9%
hydrolysis product detectable in washed cells ([4]; washed at one hour then incubated additional 3 hours): not detectable
fluorescence after fixation and permeabilization [5]: essentially nonfluorescent
